Source: ChEMBL document CHEMBL5360612, “Macrocyclic Carbon-Linked Pyrazoles As Novel Inhibitors of MCL-1” (ACS Med Chem Lett, 2023)
≈ marks a conversion by molar mass, not a printed value. Where “and” joins values, the source holds several entries; their conditions need not be identical. Equal entries are not always repeated.

Assays:
[1] = Solubility of compound in pH 2 buffer incubated for 3 days by LC-MS/MS analysis; format: physicochemical; conditions: time 3 day
[2] = Ratio of AC50 for induction of apoptosis in human MOLP8 cells using luminescent caspase-3/7 as substrate to Ki for displacement of Cy5-labeled BIM BH3 peptide (H3N-(C/Cy5Mal)-WIAQELRRIGDEFN-OH) from MCL-1 (unknown origin) assessed as inhibition constant
MOLP-8 = test: Induction of apoptosis in human MOLP8 cells using luminescent caspase-3/7 as substrate incubated for 2 hrs by Caspase-Glo 3/7 assay; format: functional, cell-based; conditions: MOLP-8, 2 h
[3] = target: Induced myeloid leukemia cell differentiation protein Mcl-1 (Homo sapiens, UniProt Q07820); test: Displacement of Cy5-labeled BIM BH3 peptide (H3N-(C/Cy5Mal)-WIAQELRRIGDEFN-OH) from MCL-1 (unknown origin) assessed as inhibition constant incubated for 60 mins by HTRF assay
[4] = Solubility of compound in pH 7 buffer incubated for 3 days by LC-MS/MS analysis; format: physicochemical; conditions: time 3 day
[5] = Cardiotoxicity in human iPSC-CM assessed as calcium transients at 10 uM by CTCM assay; format: toxicity, cell-based
Cytochrome P450 2C9 = Cytochrome P450 2C9 (Homo sapiens, UniProt P11712); test: Inhibition of recombinant human CYP2C9 by fluorescence microplate reader assay; format: ADME
[6] = Cardiotoxicity in human iPSC-CM assessed as calcium transients at 3 uM by CTCM assay; format: toxicity, cell-based
Cytochrome P450 3A4 = Cytochrome P450 3A4 (Homo sapiens, UniProt P08684); test: Inhibition of recombinant human CYP3A4 by fluorescence microplate reader assay; format: ADME
Cytochrome P450 2D6 = Cytochrome P450 2D6 (Homo sapiens, UniProt P10635); test: Inhibition of recombinant human CYP2D6 by fluorescence microplate reader assay; format: ADME
[7] = Cardiotoxicity in human iPSC-CM assessed as calcium transients at 1 uM by CTCM assay; format: toxicity, cell-based
KMS-12-PE [8] = test: Induction of apoptosis in human KMS-12-PE cells; format: functional, cell-based
Cytochrome P450 1A2 = target: T1, Cytochrome P450 1A2 (Homo sapiens, UniProt P05177); test: Inhibition of recombinant human CYP1A2 by fluorescence microplate reader assay; format: ADME
T1 sequence (P05177 whole entry): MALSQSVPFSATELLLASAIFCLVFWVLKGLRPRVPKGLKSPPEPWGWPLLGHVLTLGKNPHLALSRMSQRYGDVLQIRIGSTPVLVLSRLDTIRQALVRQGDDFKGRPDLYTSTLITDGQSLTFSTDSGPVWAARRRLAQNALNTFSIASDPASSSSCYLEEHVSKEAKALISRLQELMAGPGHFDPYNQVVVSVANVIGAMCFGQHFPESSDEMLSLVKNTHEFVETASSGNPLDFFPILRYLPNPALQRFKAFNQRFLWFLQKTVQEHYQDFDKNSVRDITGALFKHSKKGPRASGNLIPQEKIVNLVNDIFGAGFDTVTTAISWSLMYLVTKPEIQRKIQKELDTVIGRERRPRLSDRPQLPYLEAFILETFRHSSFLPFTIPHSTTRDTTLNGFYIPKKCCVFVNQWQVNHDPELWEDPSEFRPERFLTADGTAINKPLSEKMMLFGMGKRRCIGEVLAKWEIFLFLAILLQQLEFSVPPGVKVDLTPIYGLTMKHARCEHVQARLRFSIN

Cytochrome P450 2C19 = Cytochrome P450 2C19 (Homo sapiens, UniProt P33261); test: Inhibition of recombinant human CYP2C19 by fluorescence microplate reader assay; format: ADME
[9] = Cardiotoxicity in human iPSC-CM assessed as calcium transients at 0.3 uM by CTCM assay; format: toxicity, cell-based
[10] = Chromatographic hydrophobicity index, log D of the compound at pH 7.4 by UPLC-TOF analysis; format: physicochemical; conditions: buffer
[11] = Intrinsic clearance in human liver microsomes; format: ADME, Microsome; conditions: read-out: CLH
[12] = target: Voltage-gated inwardly rectifying potassium channel KCNH2 (Homo sapiens, UniProt Q12809); test: […] from human ERG by PatchXpress assay; format: toxicity
[13] = Cardiotoxicity in human iPSC-CM assessed as calcium transients at 0.1 uM by CTCM assay; format: toxicity, cell-based
KMS-12-PE [14] = test: Induction of apoptosis in MCL-1 knockout human KMS-12-PE cells overexpressing BFL-1; format: functional, cell-based
[15] = Intrinsic clearance in mouse liver microsomes; format: ADME, Microsome; conditions: read-out: CLH
Cytochrome P450 2C8 = target: T2, Cytochrome P450 2C8 (Homo sapiens, UniProt P10632); test: Inhibition of recombinant human CYP2C8 by fluorescence microplate reader assay; format: ADME
T2 sequence (P10632 whole entry): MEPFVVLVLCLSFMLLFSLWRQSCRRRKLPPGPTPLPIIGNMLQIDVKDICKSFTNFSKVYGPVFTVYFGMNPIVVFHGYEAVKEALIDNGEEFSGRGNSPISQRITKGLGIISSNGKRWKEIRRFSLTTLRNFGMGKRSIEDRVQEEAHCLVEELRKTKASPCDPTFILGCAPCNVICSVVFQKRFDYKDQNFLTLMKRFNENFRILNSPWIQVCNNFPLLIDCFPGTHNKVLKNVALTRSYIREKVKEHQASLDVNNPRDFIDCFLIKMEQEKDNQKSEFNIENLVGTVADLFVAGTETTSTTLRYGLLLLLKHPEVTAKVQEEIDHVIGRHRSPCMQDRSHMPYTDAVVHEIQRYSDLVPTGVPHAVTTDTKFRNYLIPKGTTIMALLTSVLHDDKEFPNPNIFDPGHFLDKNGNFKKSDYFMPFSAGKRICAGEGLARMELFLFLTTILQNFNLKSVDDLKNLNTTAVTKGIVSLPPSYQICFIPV

Induced myeloid leukemia cell differentiation protein Mcl-1, sequence (Q07820 whole entry): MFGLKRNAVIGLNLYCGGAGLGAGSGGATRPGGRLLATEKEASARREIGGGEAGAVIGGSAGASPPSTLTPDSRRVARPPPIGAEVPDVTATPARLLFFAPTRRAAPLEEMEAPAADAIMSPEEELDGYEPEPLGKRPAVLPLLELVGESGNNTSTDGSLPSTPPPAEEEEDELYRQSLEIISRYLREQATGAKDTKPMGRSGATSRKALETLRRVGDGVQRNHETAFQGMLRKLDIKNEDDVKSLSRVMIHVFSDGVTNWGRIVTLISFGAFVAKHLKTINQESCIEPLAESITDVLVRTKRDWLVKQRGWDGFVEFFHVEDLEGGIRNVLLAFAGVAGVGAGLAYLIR
Cytochrome P450 2D6, sequence (P10635 whole entry): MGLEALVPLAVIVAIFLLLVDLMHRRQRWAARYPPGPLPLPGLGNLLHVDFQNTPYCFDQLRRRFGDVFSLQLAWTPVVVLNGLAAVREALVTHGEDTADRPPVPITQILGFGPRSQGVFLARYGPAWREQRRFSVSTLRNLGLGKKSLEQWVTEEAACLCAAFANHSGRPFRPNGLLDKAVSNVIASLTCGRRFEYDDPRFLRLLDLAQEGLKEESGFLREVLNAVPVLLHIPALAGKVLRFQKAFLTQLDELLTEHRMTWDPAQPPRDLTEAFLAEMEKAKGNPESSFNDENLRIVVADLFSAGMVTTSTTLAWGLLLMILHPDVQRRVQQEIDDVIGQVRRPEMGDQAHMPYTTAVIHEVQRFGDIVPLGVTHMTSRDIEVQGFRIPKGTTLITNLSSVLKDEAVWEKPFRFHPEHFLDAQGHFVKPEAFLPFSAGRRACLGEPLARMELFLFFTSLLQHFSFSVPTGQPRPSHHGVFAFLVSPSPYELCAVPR
Cytochrome P450 3A4, sequence (P08684 whole entry): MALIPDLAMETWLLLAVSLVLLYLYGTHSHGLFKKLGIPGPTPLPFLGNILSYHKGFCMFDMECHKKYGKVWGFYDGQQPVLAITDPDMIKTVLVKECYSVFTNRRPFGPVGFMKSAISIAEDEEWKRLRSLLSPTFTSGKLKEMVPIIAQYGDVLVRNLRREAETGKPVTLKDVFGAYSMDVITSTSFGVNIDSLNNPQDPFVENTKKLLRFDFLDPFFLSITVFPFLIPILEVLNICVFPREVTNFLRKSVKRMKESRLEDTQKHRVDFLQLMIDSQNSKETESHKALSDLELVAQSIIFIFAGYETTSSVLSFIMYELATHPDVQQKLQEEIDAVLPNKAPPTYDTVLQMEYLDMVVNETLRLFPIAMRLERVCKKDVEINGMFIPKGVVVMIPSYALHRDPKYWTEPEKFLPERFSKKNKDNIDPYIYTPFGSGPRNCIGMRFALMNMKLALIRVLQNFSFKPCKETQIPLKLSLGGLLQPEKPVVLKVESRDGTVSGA
Cytochrome P450 2C19, sequence (P33261 whole entry): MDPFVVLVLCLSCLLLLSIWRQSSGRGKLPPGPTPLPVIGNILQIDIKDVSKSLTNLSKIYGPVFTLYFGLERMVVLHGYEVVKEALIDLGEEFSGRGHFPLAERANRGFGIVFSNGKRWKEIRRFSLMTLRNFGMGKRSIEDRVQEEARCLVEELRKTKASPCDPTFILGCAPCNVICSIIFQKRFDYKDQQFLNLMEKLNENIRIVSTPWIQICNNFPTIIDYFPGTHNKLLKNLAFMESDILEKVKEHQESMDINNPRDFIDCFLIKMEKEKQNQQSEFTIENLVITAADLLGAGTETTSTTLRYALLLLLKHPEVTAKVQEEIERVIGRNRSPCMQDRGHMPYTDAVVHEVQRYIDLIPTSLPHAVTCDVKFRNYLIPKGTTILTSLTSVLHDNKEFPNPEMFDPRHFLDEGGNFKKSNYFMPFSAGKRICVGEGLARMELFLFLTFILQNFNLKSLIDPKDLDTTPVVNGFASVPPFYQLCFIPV
Cytochrome P450 2C9, sequence (P11712 whole entry): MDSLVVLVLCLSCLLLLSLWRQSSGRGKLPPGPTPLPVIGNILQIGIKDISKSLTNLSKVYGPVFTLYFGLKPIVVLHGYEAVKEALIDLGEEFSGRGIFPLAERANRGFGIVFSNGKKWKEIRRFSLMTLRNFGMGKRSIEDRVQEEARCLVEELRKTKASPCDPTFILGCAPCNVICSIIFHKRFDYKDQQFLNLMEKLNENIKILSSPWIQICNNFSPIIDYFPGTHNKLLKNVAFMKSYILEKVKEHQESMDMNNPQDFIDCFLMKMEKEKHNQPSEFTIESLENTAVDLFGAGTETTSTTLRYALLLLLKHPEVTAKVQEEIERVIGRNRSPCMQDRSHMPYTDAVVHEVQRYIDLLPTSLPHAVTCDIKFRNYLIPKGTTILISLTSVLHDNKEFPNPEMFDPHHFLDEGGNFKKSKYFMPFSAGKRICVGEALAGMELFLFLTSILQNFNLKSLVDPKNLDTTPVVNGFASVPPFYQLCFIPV
Voltage-gated inwardly rectifying potassium channel KCNH2, sequence (Q12809 whole entry): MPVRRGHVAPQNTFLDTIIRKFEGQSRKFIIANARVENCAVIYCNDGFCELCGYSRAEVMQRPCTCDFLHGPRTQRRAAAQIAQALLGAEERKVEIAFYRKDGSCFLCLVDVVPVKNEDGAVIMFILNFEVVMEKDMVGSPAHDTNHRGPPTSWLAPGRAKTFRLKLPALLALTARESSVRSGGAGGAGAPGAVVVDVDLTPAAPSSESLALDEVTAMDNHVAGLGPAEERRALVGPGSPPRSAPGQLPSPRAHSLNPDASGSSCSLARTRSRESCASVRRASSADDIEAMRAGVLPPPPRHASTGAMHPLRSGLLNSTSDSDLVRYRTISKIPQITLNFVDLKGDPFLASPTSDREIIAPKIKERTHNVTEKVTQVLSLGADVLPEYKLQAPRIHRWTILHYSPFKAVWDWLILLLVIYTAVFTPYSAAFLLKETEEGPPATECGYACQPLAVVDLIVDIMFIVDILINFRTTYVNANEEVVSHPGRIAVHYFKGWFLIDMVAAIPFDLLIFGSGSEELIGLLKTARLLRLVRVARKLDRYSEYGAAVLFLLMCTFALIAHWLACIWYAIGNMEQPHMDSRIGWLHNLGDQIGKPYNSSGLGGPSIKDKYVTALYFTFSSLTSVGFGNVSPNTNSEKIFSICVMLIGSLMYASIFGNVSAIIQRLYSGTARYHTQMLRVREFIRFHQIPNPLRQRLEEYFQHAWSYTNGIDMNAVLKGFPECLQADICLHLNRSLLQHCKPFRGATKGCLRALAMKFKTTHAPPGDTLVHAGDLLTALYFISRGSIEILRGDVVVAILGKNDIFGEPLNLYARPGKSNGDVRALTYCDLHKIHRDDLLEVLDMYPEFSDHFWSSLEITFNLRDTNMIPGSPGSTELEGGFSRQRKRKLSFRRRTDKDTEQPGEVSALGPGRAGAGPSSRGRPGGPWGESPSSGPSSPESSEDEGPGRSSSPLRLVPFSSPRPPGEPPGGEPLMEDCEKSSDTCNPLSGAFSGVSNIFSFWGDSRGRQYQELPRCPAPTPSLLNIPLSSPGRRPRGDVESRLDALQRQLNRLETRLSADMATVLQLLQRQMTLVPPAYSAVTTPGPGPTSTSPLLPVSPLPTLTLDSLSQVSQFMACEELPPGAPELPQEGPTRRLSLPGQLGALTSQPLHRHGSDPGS

Row | SMILES | solubility at 72 h [1] | Ratio [2] | AC50 (MOLP-8) | Ki [3] | solubility at 72 h [4] | also measured
1 | COCCOCCc1nn(C)c2c1CSCc1cc(n(C)n1)CCc1cc(c3ccc(F)cc3c1)OCCCc1c(C(=O)O)n(C)c3c-2c(Cl)ccc13 | < 0.29 µM | 1230 | 16 nM | 0.013 nM | 460 µM (≈ 350 µg/mL) | 
2 | CN(C)CCn1c(C(=O)O)c2c3ccc(Cl)c(c31)-c1c(cnn1C)CSCc1cc(n(C)n1)CCc1cc(c3ccc(F)cc3c1)OCCC2 |  | 3530 | 120 nM | 0.034 nM |  | 
3 | COCCOCCn1nc(C)c2c1CSCc1cc(n(C)n1)CCc1cc(c3ccc(F)cc3c1)OCCCn1c(C(=O)O)c(C)c3c-2c(Cl)ccc31 |  |  | 12 nM |  |  | 
4 | Cn1nc2cc1CSc1cc(c3ccccc3c1)OCCCc1c(C(=O)O)n(C)c3c(c(Cl)ccc13)-c1c(cnn1C)CSC2 | < 0.55 µM | 738 and >900 |  |  | < 0.49 µM | 
5 | COCCOCc1nn(C)c2c1CSCc1cc(n(C)n1)CCc1cc(c3ccccc3c1)OCCCc1c(C(=O)O)n(C)c3c-2c(Cl)ccc13 | < 0.06 µM | 1870 | 43 nM | 0.023 nM | 590 µM (≈ 430 µg/mL) | 
6 | COCCn1c(C(=O)O)c2c3ccc(Cl)c(c31)-c1c(cnn1C)CSCc1cc(n(C)n1)CCc1cc(c3ccc(F)cc3c1)OCCC2 | < 0.02 µM | 1954 | 43 nM | 0.022 nM | 10.4 µM (≈ 7.3 µg/mL) | 
7 | COCCOCCn1c(C(=O)O)c2c3ccc(Cl)c(c31)-c1c(cnn1C)CSCc1cc(n(C)n1)CCc1cc(c3ccc(F)cc3c1)OCCC2 | < 0.23 µM | 2600 | 52 nM | 0.02 nM | 520 µM (≈ 388 µg/mL) | 
8 | COCCOCc1nn(C)c2c1CSCc1cc(n(C)n1)CCc1cc(c3ccc(F)cc3c1)OCCCc1c(C(=O)O)n(C)c3c-2c(Cl)ccc13 | < 0.02 µM | 777 | 14 nM | 0.018 nM | 580 µM (≈ 433 µg/mL) | Activity [5]: Non-Toxic; IC50 (Cytochrome P450 2C9): 19000 nM; Activity [6]: Non-Toxic; IC50 (Cytochrome P450 3A4): > 20000 nM; IC50 (Cytochrome P450 2D6): > 20000 nM; Activity [7]: Non-Toxic; AC50 (KMS-12-PE [8]): 111 nM; IC50 (Cytochrome P450 1A2): > 20000 nM; IC50 (Cytochrome P450 2C19): > 20000 nM; Activity [9]: Non-Toxic; chromatographic logD [10]: 2.49; microsomal CLint [11]: 48 µL/min/mg; IC50 [12]: > 30000 nM; Activity [13]: Non-Toxic; AC50 (KMS-12-PE [14]): > 30000 nM; microsomal CLint [15]: 157 µL/min/mg; IC50 (Cytochrome P450 2C8): 9600 nM
9 | Cc1nn(C)c2c1CSCc1cc(n(C)n1)CCc1cc(c3ccc(F)cc3c1)OCCCc1c(C(=O)[O-])n(C)c3c-2c(Cl)ccc13.[Na+] | < 0.03 µM | 243 | 10 nM | 0.041 nM | 550 µM | 
10 | Cc1nn(C)c2c1CSCc1cc(n(C)n1)CCc1cc(c3ccccc3c1)OCCCc1c(C(=O)[O-])n(C)c3c-2c(Cl)ccc13.[Na+] | < 0.04 µM | 1406 | 45 nM | 0.032 nM | 210 µM | 
11 | Cc1nn(C)c2c1CSCc1cc(n(C)n1)CSc1cc(c3ccccc3c1)OCCCc1c(C(=O)O)n(C)c3c-2c(Cl)ccc13 | < 0.27 µM | 1350 | 54 nM | 0.04 nM | 9.7 µM (≈ 6.52 µg/mL) | 
12 | Cn1nc2cc1CCc1cc(c3ccc(F)cc3c1)OCCCc1c(C(=O)O)n(CCN3CCOCC3)c3c(c(Cl)ccc13)-c1c(cnn1C)CSC2 | 580 µM (≈ 439 µg/mL) | 3800 | 76 nM | 0.02 nM | 550 µM (≈ 417 µg/mL) | Activity [5]: Non-Toxic; IC50 (Cytochrome P450 2C9): > 20000 nM; Activity [6]: Non-Toxic; IC50 (Cytochrome P450 3A4): 9500 nM; IC50 (Cytochrome P450 2D6): 10500 nM; Activity [7]: Non-Toxic; AC50 (KMS-12-PE [8]): 407 nM; IC50 (Cytochrome P450 1A2): > 20000 nM; IC50 (Cytochrome P450 2C19): > 20000 nM; Activity [9]: Non-Toxic; chromatographic logD [10]: 2.53; microsomal CLint [11]: 43 µL/min/mg; IC50 [12]: > 30000 nM; Activity [13]: Non-Toxic; AC50 (KMS-12-PE [14]): > 30000 nM; microsomal CLint [15]: 24 µL/min/mg; IC50 (Cytochrome P450 2C8): 5600 nM
13 | Cn1nc2cc1CCc1cc(c3ccc(F)cc3c1)OCCCc1c(C(=O)O)[nH]c3c(c(Cl)ccc13)-c1c(cnn1C)CSC2 |  | 4300 | 202 nM | 0.047 nM |  | 
